Literature values as cited in publication PMC7207041 (Medicinal chemistry research : an international journal for …, 2020).
Each block holds one compound with its values, some of them ahead of it.

Tests used:
Keap1-Nrf2 PPI [1] = details: same FP assay conditions; ref Tran et al. 2019
[2] = ref Lazzara et al. 2020
[3] = human liver microsomes; ref Lazzara et al. 2020
Nrf2-regulated proteins = details: WT mice; ref Walsh et al. 2014
Keap1 Kelch domain = details: read-out: Kd in ITC assay; ref Winkel et al. 2015
[4] = human, mouse, and rat; ref Winkel et al. 2015
GCLC and NQO1 = details: mouse, administered together with a cytochrome P450 inhibitor; ref Winkel et al. 2015
[5] = tested on: ARE-mediated genes in HepG2 cells; details: read-out: EC50, activation of ARE-mediated genes, ref Hu et al. 2013b
[6] = tested on: cultured human kidney cells (HEK293); details: HEK293, 50 and 100 μM; ref Wen et al. 2015
Keap1-Nrf2 PPI [7] = details: read-out: IC50 in FP assay; ref Jiang et al. 2018
[8] = tested on: LPS-induced cardiomyopathy; details: ref Jiang et al. 2018

- Comparative assessment by Bach et. al. FP (Ki μM) (Keap1-Nrf2 PPI [1]): NA (≤77)
Compound: O=[N+]([O-])c1ccc(Sc2nnc(COc3ccccc3)n2-c2ccccc2)c2ncccc12 [Compound 30]
- expression of Nrf2-responsive proteins NQO1 and GCLM (Nrf2 target genes; ref Kazantsev et al. 2014): induced expression

- logD7.4 [2]: 0.5
- metabolic stability t1/2 [3]: 2.27 h
Compound: COc1ccc(S(=O)(=O)N(CC(F)(F)F)c2cnc(N(CC(=O)O)S(=O)(=O)c3ccc(OC)cc3)c3ccccc23)cc1 [Compound 11]
- cellular levels of Nrf2 and NQO1 expression (Nrf2 target genes; compared with 10, ref Lazzara et al. 2020): remarkable increase

Compound: COC(=O)[C@]12CCC(C)(C)C[C@H]1[C@H]1C(=O)C=C3[C@@]4(C)C=C(C#N)C(=O)C(C)(C)[C@@H]4CC[C@@]3(C)[C@]1(C)CC2 [CDDO-Me, bardoxolone methyl]
- number of proteins changed by treatment (Nrf2-regulated proteins): 43 proteins

- Kd (Keap1 Kelch domain): 6 µM
- metabolic stability in liver microsomes [4]: low metabolic stability
Compound: Cc1cc(C)c(C)c(S(=O)(=O)Nc2ccc(N3CC[C@H](C(=O)O)C3)c3ccccc23)c1C [Compound 12]
- hepatic mRNA levels of GCLC and NQO1 (GCLC and NQO1): significantly increased

- EC50 [5]: 18 µM
Compound: O=C(O)[C@H]1CCCC[C@H]1C(=O)N1CCc2ccccc2[C@H]1CN1C(=O)c2ccccc2C1=O [Compound 1]
- HO-1 protein expression enhancement [6]: 3.5 fold
- TRX1 protein expression enhancement [6]: 2–4 fold

- IC50 (Keap1-Nrf2 PPI [7]): 5.1 µM
Compound: C=CCOC(=O)/N=c1\oc2cc(N(CC)CC)ccc2cc1-c1nc2ccccc2s1 [Compound 25]
- effect in mouse model of LPS-induced cardiomyopathy [8]: cardiac protective effect
- mRNA levels of Nrf2 target genes (HO-1 and NQO1) (Nrf2 target genes; H9c2 cardiac cells, ref Jiang et al. 2018): significant increase
